Tests used:
[1] = tested on: TGF-beta-induced phosphorylation of Smad2 and Smad3 in Mv1-Lu cells; assay: Inhibition of Smad2/3 phosphorylation in Mv1Lu cells (Example 35A); assay type: cell-based, mink Mustela vison; details: Neogale vison, Mv1-Lu cells, TGF-beta 1 5 ng/ml, phospho-Smad2/3 ELISA, read-out: TβR activity (Example 35A)
How it was run: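 Serum-starved (16-20 h) Mv1-Lu mink lung epithelial cells were pre-incubated 1.5 h with compound dilutions (0.2% DMSO), then stimulated 1 h with 5 ng/ml TGF-beta 1. Phospho-Smad2 (Ser465/467)/Smad3 (Ser423/425) in lysates was measured by ELISA. IC50 came from dose-response fits between stimulated and unstimulated controls.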

GST-ALK5 = molecular target: T1, GST-ALK5 (Homo sapiens, UniProt P36897); assay: In-vitro (enzyme) kinase assay, 384-well flashplate (Example 36); assay type: biochemical; details: GST-ALK5, GST-SMAD2 substrate, 3 mM ATP, 30° C., 45 min; read-out: TβR activity (Example 36)
T1 sequence (P36897 34-503): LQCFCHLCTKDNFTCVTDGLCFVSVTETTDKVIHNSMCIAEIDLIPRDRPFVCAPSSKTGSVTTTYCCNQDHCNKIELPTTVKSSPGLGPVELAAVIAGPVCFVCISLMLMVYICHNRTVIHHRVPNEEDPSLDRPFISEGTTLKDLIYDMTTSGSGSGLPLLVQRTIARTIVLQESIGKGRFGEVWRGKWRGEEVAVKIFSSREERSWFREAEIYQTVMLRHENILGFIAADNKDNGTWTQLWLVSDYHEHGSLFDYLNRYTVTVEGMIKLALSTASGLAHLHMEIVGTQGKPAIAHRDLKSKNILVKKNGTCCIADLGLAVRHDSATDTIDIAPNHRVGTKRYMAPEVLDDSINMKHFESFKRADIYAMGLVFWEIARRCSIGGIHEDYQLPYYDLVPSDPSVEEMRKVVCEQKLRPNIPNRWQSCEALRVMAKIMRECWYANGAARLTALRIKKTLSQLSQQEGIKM
How it was run: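 Radiometric flashplate assay: 31.2 nM GST-ALK5 phosphorylating 439 nM GST-SMAD2 with 3 mM ATP plus ³³P-ATP, in HEPES/MgCl2/MnCl2/DTT/BSA buffer pH 7.4, 45 min at 30 °C, 5-10 compound concentrations. EDTA stop, filtration and washing, then radioactivity counted; IC50 derived from the curve.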

Row | IC50 [1] | IC50 (GST-ALK5) | Compound
1 | 0.1 to 1 µM | 0.1 to 1 µM | CN1CCC(NC(=O)c2cccc(-c3cncc(-c4cc(-c5cc(Cl)ccc5F)nc5ncccc45)c3)c2)CC1 [compound 126, 3-{5-[2-(5-Chloro-2-fluoro-phenyl)-[1,8]naphthyridin-4-yl]-pyridin-3-yl}-N-(1-methyl-piperidin-4-yl)-benzamide]
2 | > 10 µM | 1 to 10 µM | CNC(=O)c1cccc(-c2cncc(-c3cc(-c4cc(Cl)ccc4F)nc4ncccc34)c2)n1 [compound 127, 5′-[2-(5-Chloro-2-fluoro-phenyl)-[1,8]naphthyridin-4-yl]-[2,3′]bipyridinyl-6-carboxylic acid methylamide]
3 | 1 to 10 µM | 1 to 10 µM | Cc1ccn(-c2cc(-c3cncc(-c4ccc(N5CCN(C)CC5)cc4)c3)c3cccnc3n2)n1 [compound 128, 4-{5-[4-(4-Methyl-piperazin-1-yl)-phenyl]-pyridin-3-yl}-2-(3-methyl-pyrazol-1-yl)-[1,8]naphthyridine]
4 | > 10 µM | > 10 µM | Nc1cccnc1-c1cncc(-c2cc(-c3cc(Cl)ccc3F)nc3ncccc23)c1 [compound 129, 5′-[2-(5-Chloro-2-fluoro-phenyl)-[1,8]naphthyridin-4-yl]-[2,3′]bipyridinyl-3-ylamine]
5 | 1 to 10 µM | 1 to 10 µM | CN1CCN(c2ccc(-c3cnnc(-c4cc(-c5cc(Cl)ccc5F)nc5ncccc45)c3)cc2)CC1 [compound 130, 2-(5-Chloro-2-fluoro-phenyl)-4-{5-[4-(4-methyl-piperazin-1-yl)-phenyl]-pyridazin-3-yl}-[1,8]naphthyridine]
6 | 0.1 to 1 µM | < 0.1 µM | O=C1COc2ccc(-c3cncc(-c4cc(-c5cc(Cl)ccc5F)nc5ncccc45)c3)cc2N1 [compound 131, 6-{5-[2-(5-Chloro-2-fluoro-phenyl)-[1,8]naphthyridin-4-yl]-pyridin-3-yl}-4H-benzo[1,4]oxazin-3-one]
7 | < 0.1 µM | < 0.1 µM | CN1CCN(c2ccnc(-c3cncc(-c4cc(-c5cc(Cl)ccc5F)nc5ncccc45)c3)c2)CC1 [compound 132, 2-(5-Chloro-2-fluoro-phenyl)-4-[4-(4-methyl-piperazin-1-yl)-[2,3′]bipyridinyl-5′-yl]-[1,8]naphthyridine]
8 | > 10 µM | > 10 µM | N#Cc1ccnc(-c2cncc(-c3cc(-c4cc(Cl)ccc4F)nc4ncccc34)c2)c1 [compound 133, 5′-[2-(5-Chloro-2-fluoro-phenyl)-[1,8]naphthyridin-4-yl]-[2,3′]bipyridinyl-4-carbonitrile]
9 | < 0.1 µM | 0.1 to 1 µM | Fc1ccc(Cl)cc1-c1cc(-c2cncc(-c3ccc4c(c3)OCCO4)c2)c2cccnc2n1 [compound 134, 2-(5-Chloro-2-fluoro-phenyl)-4-[5-(2,3-dihydro-benzo[1,4]dioxin-6-yl)-pyridin-3-yl]-[1,8]naphthyridine]
10 | 0.1 to 1 µM | < 0.1 µM | NS(=O)(=O)c1cccc(-c2cncc(-c3cc(-c4cc(Cl)ccc4F)nc4ncccc34)c2)c1 [compound 135, 3-{5-[2-(5-Chloro-2-fluoro-phenyl)-[1,8]naphthyridin-4-yl]-pyridin-3-yl}-benzene-sulfonamide]
11 | < 0.1 µM | < 0.1 µM | Fc1ccc(Cl)cc1-c1cc(-c2cncc(-c3ccc4c(c3)CNCC4)c2)c2cccnc2n1 [compound 136, 2-(5-Chloro-2-fluoro-phenyl)-4-[5-(1,2,3,4-tetrahydro-isoquinolin-7-yl)-pyridin-3-yl]-[1,8]naphthyridine]
12 | > 10 µM | 1 to 10 µM | Fc1ccc(F)c(-c2cc(-c3cccnc3)c3cccnc3n2)c1 [compound 137, 2-(2,5-Difluoro-phenyl)-4-pyridin-3-yl-[1,8]naphthyridine]
13 | 0.1 to 1 µM | < 0.1 µM | NC(=O)COc1ccc(-c2cncc(-c3cc(-c4cc(Cl)ccc4F)nc4ncccc34)c2)cc1 [compound 138, 2-(4-{5-[2-(5-Chloro-2-fluoro-phenyl)-[1,8]naphthyridin-4-yl]-pyridin-3-yl}-phenoxy)-acetamide]
14 | < 0.1 µM | < 0.1 µM | CN(C)CCCOc1ccc(-c2cncc(-c3cc(-c4cc(Cl)ccc4F)nc4ncccc34)c2)cc1 [compound 139, [3-(4-{5-[2-(5-Chloro-2-fluoro-phenyl)-[1,8]naphthyridin-4-yl]-pyridin-3-yl}-phenoxy)-propyl]-dimethyl-amine]
15 | 1 to 10 µM | 0.1 to 1 µM | CN1CCN(c2ccc(-c3cncc(-c4cc(-c5cc(F)ccc5F)nc5ncccc45)c3)nn2)CC1 [compound 140, 2-(2,5-Difluoro-phenyl)-4-{5-[6-(4-methyl-piperazin-1-yl)-pyridazin-3-yl]-pyridin-3-yl}-[1,8]naphthyridine]
16 | 0.1 to 1 µM | 0.1 to 1 µM | CN1CCN(c2cccc(-c3cncc(-c4cc(-c5cc(Cl)ccc5F)nc5ncccc45)c3)n2)CC1 [compound 141, 2-(5-Chloro-2-fluoro-phenyl)-4-[6-(4-methyl-piperazin-1-yl)-[2,3′]bipyridinyl-5′-yl]-[1,8]naphthyridine]
17 | 0.1 to 1 µM | < 0.1 µM | NCCOc1cccc(-c2cncc(-c3cc(-c4cc(Cl)ccc4F)nc4ncccc34)c2)c1 [compound 143, 2-(3-{5-[2-(5-Chloro-2-fluoro-phenyl)-[1,8]naphthyridin-4-yl]-pyridin-3-yl}-phenoxy)-ethylamine]
18 | 0.1 to 1 µM | < 0.1 µM | Fc1ccc(F)c(-c2cc(-c3cncc(-c4cccc(OC5CCNCC5)c4)c3)c3cccnc3n2)c1 [compound 144, 2-(2,5-Difluoro-phenyl)-4-{5-[3-(piperidin-4-yloxy)-phenyl]-pyridin-3-yl}-[1,8]naphthyridine]
19 | 1 to 10 µM | 0.1 to 1 µM | O=S(=O)(c1cccc(-c2cncc(-c3cc(-c4cc(Cl)ccc4F)nc4ncccc34)c2)c1)N1CCNCC1 [compound 145, 2-(5-Chloro-2-fluoro-phenyl)-4-{5-[3-(piperazine-1-sulfonyl)-phenyl]-pyridin-3-yl}-[1,8]naphthyridine]
20 | 0.1 to 1 µM | 0.1 to 1 µM | CC1(C)CCNc2ccc(-c3cncc(-c4cc(-c5cc(Cl)ccc5F)nc5ncccc45)c3)cc21 [compound 146, 2-(5-Chloro-2-fluoro-phenyl)-4-[5-(4,4-dimethyl-1,2,3,4-tetrahydro-quinolin-6-yl)-pyridin-3-yl]-[1,8]naphthyridine]
21 | 1 to 10 µM | 0.1 to 1 µM | Fc1ccc(F)c(-c2cc(-c3cncc(-c4cccc(OCC5CCNCC5)c4)c3)c3cccnc3n2)c1 [compound 147, 2-(2,5-Difluoro-phenyl)-4-{5-[3-(piperidin-4-ylmethoxy)-phenyl]-pyridin-3-yl}-[1,8]naphthyridine]
22 | < 0.1 µM | < 0.1 µM | Fc1ccc(F)c(-c2cc(-c3cncc(-c4cccc(OCCN5CCNCC5)c4)c3)c3cccnc3n2)c1 [compound 148, 2-(2,5-Difluoro-phenyl)-4-{5-[3-(2-piperazin-1-yl-ethoxy)-phenyl]-pyridin-3-yl}-[1,8]naphthyridine]
23 | < 0.1 µM | 0.1 to 1 µM | CN1CCc2cc(-c3cncc(-c4cc(-c5cc(Cl)ccc5F)nc5ncccc45)c3)ccc21 [compound 149, 2-(5-Chloro-2-fluoro-phenyl)-4-[5-(1-methyl-2,3-dihydro-1H-indol-5-yl)-pyridin-3-yl]-[1,8]naphthyridine]
24 | < 0.1 µM | 0.1 to 1 µM | Cn1ccc2cc(-c3cncc(-c4cc(-c5cc(Cl)ccc5F)nc5ncccc45)c3)ccc21 [compound 150, 2-(5-Chloro-2-fluoro-phenyl)-4-[5-(1-methyl-1H-indol-5-yl)-pyridin-3-yl]-[1,8]naphthyridine]
25 | < 0.1 µM | 0.1 to 1 µM | Fc1ccc(Cl)cc1-c1cc(-c2cncc(-c3ccc4c(c3)NCCC4)c2)c2cccnc2n1 [compound 151, 2-(5-Chloro-2-fluoro-phenyl)-4-[5-(1,2,3,4-tetrahydro-quinolin-7-yl)-pyridin-3-yl]-[1,8]naphthyridine]
26 | 1 to 10 µM | 1 to 10 µM | NCCc1ccccc1-c1cncc(-c2cc(-c3cc(Cl)ccc3F)nc3ncccc23)c1 [compound 152, 2-(2-{5-[2-(5-Chloro-2-fluoro-phenyl)-[1,8]naphthyridin-4-yl]-pyridin-3-yl}-phenyl)-ethylamine]
27 | < 0.1 µM | < 0.1 µM | Fc1ccc(Cl)cc1-c1cc(-c2cncc(-c3ccc(CCN4CCOCC4)cc3)c2)c2cccnc2n1 [compound 153, 2-(5-Chloro-2-fluoro-phenyl)-4-{5-[4-(2-morpholin-4-yl-ethyl)-phenyl]-pyridin-3-yl}-[1,8]naphthyridine]
28 | 1 to 10 µM | 0.1 to 1 µM | Fc1ccc(Cl)cc1-c1cc(-c2cncc(-c3ccc4c(c3)CCN4)c2)c2cccnc2n1 [compound 154, 2-(5-Chloro-2-fluoro-phenyl)-4-[5-(2,3-dihydro-1H-indol-5-yl)-pyridin-3-yl]-[1,8]naphthyridine]

Source: US8912216B2, “Hetaryl-[1,8]naphthyridine derivatives” (Merck Patent GmbH, priority 2010, dated 2014)
